Values joined by “and” are separate entries in the source; they are usually repeats but may differ in a detail not shown here. Equal values may be shown once.

In assay [1] the test system is HIV-RNA in supernatant of HIV-1 infected CEM/0 T-cells. Put plainly: HIV-1 quantitative RNA assay (HIV-1 Monitor) in supernatants of CEM/0 T-cells. Details: inhibition of HIV-RNA in the supernatants in comparison to untreated control / % OF CONTROL / % control: concentration or dose not given beside the values. The format is cell-based. To be noted: for N*: day 7 post Rx, PEG 0.400 IU/ml, SAQ 25 uM, AZT 1 uM, combinations PEG 0.233 IU/ml + SAQ 14.52 uM; for inhibition of HIV-RNA in the supernatants in comparison to untreated control: Experiment 6 text; for % control / MEAN N: Table 3; for Log 10 N: Table 3, per flask. The text has this: It should be noted that “PEG” in Table 3 represents PEG-ASNase.
Materials and Methods: The cell line used for these studies is CEM/0, a human T-cell leukemic cell line. PEG-ASNase (ONCASPAR) is provided by Rhone-Poulenc Rorer. Saquinavin is commercially available. AZT is purchased from Sigma. MISID, a ribonucleotide reductase inhibitor, is as described in Nandy P, Lien E J, Avramis V I, Med. Chem. Res. 1995, 5:664-679. RPMI-1640 media (Irvine Scientific, Irvine, Calif.), is enriched with 10% Fetal Calf Serum (Gemini Biosource, Calabasas, Calif.), 5% 1M Hepes Buffer solution and 5% Non-essential amino acids (Irvine Scientific, Irvine, Calif.). The drug concentrations used are as follows:
Briefly, 3×10^6 cells/ml are stimulated with PHA+ media for 48 hours at 37° C. with 5% CO2. Also, the same number of cells are incubated in PHA free media for 48 hours to serve as the negative control. At this point the cells are inoculated with the HIV-1 virus as per standard protocol. Note that in this experiment, the HIV containing supernatant from the PHA-stimulated healthy human peripheral mononuclear cells (PBMC) is not removed from the PHA-stimulated CEM/0 cell culture. […] These virus particles are continuously released by already infected T-cells and/or lymph nodes of patients.
The experimental drugs are added to the cells in the appropriate concentrations at the same time as viral inoculation or 90 minutes after the viral incubation, a time sufficient for the T-cells to be infected and start producing new HIV-1 virus particles. The control cells are resuspended in drug-free media for the duration of the exposure which lasted seven days. Aliquots of media from the control flasks only are obtained on day 5 post Rx. At day seven, three 1 ml each, aliquots of media are removed from the flasks and stored under liquid nitrogen. In addition, the remaining cells are split into three and then pelleted and stored at −80° C. Supernatant specimens are obtained form these T-cell cultures and are frozen at −80° C. The samples produced from this experiment are itemized. The cell pellets of the cellular cultures (see Experiment 9) from the 90 minute viral incubation flasks are assayed for HIV-RNA quantitative assay using a kit for the assay, non-radioactive. […] The standard curve is determined and the HIV-RNA levels for the experimental samples are calculated and reported previously.
This experiment is carried out using a similar procedure, and the same concentrations of materials as in Experiment 10, however the exposure of HIV-RNA in T-cell supernatants to a combination of PEG-ASNase, Saquinavir, AZT and 3TC is measured. It should be noted that “PEG” in Table 10 represents PEG-ASNase.

Assay [2] concerns CEM/0 cells. The experiment in a line: Sequential and concurrent combination cytotoxicity of PEG-ASNase and Saquinavir. The format is cell-based, human. To be noted: CEM/0 T-cells. The method, then:
In this experiment, the described range of concentrations is used to investigate the combined regimen of Saquinavir and PEG-ASNase. For the sequential combination studies of PEG-ASNase followed by Saquinavir, cells are incubated with the concentrations provided below of PEG-ASNase for 24 hours. Then Saquinavir, in the concentrations provided below, is added to the appropriate cells for an additional twenty-four (24) hours, bringing the total exposure time to forty-eight (48) hours. The exposure involved 2×10^5 cells/ml being incubated in a tissue culture flask with concentrations of the drugs investigated as provided below. […] The drug concentrations used are as follows:
(§1) In all in vitro studies, the negative control cells are incubated in a drug-free media for the same duration and under the same conditions as the experimental samples. Cell density is measured via cell counting using a Coulter Counter coupled with a Coulter Channelyzer for each of the experimental flasks at 24, 48 and 72 hours after incubation. Additionally, Trypan Blue Exclusion tests are performed for each of these experimental conditions. Cell numbers are corrected for the viability determined by the Trypan Blue test and presented as a percentage of the untreated control.
The reverse sequence is also tested. […] Saquinavir is administered and the cells incubated for twenty-four (24) hours followed by addition of PEG-ASNase and an additional incubation period of twenty-four (24) hours, bringing the total exposure time to forty-eight (48) hours. Other than the drug sequence, the methodology is the same as that mentioned immediately above. The concurrent combination regimen is also tested using the same methodology. […] The concurrent combined methodology experiment had the samples exposed to forty-eight (48) hours of concurrent combined exposure.

The subject of assay [3] is CEM/0 cells. Put plainly: cells. The format is cell-based, human. To be noted: for IC50: Homo sapiens, CCRF-CEM.
Source text: A human leukemic T-cell line, hereafter referred to as CEM/0 is used for this experiment. PEG-ASNase is obtained from Rhone-Poulenc Rorer Pharmaceuticals Inc under the tradename Oncaspar®. Saquinavir is obtained from Roche Laboratories under the tradename Invirase™. RPMI-1640 media obtained from Irvine Scientific, Irvine Calif. is enriched with 10% Fetal Calf Serum obtained from Gemini Biosource, Calabasas, Calif., 5% 1M Hepes buffer solution and 5% non-essential amino acids obtained from Irvine Scientific, Irvine Calif.
An experiment is carried out to determine the cytotoxicity of Saquinavir and PEG-ASNase. For determining the cytotoxicity of either compound alone, 2×10^5 cells/ml are incubated in 24-well plates with the following drug concentrations:
as §1

Assay [4] has as its system asparagine, glutamine, and aspartic acid levels of CEM/0 cells. Put plainly: Determination of amino acid levels after PEG-ASNase exposure (HPLC). The assay is classed as cell-based, human. To be noted: 24 hours exposure. The procedure: Experiments to determine the amino acid level in cell suspensions and cell media are performed to determine the effect of PEG-ASNase on the amino acid levels, particularly the levels of asparagine, glutamine, and aspartic acid.
Samples of 50 μl media and 10 μl of 1 mM aminoadopic acid are added to 450 μl of cold methanol in 1.5 ml microfuge tubes. The mixtures are vortexed and centrifuged at 8700 g for two minutes. The supernatants are transferred to borosilicate glass test tubes (13×100 mm) and lyophilized. The specimens are stored at −20° C. until they are analyzed by HPLC. Prior to HPLC analysis, the samples are dissolved in a buffer containing 95% […] disodium hydrogen phosphate and 5% acetonitrile.

Turning to `Cc1cn([C@H]2C[C@H](N=[N+]=[N-])[C@@H](CO)O2)c(=O)[nH]c1=O` [AZT, zidovudine], the MEAN in assay [1] (Table 8) came out at 120691 copies/mL; in assay [1] (Table 10), 1437 copies/mL. Also, the “N*” value is 120981 copies/mL and 121288 copies/mL and 119805 copies/mL in assay [1] (Table 8, per specimen, 90 min viral inoculation, MISID 0.685 uM); 1203 copies/mL and 1409 copies/mL and 1700 copies/mL in assay [1] (Table 10, per specimen, 3TC 1 uM). For the same molecule, the “% OF CONTROL” value in assay [1] (Table 8 and Experiment 10) is listed as 61.74%; in assay [1] (Table 10 and Experiment 11), 32.48%.

Consider `CC(C)(C)NC(=O)[C@@H]1C[C@@H]2CCCC[C@@H]2CN1C[C@@H](O)[C@H](Cc1ccccc1)NC(=O)[C@H](CC(N)=O)NC(=O)c1ccc2ccccc2n1` [Saquinavir], for which the “inhibition of HIV-RNA in the supernatants in comparison to untreated control” value in assay [1] is given as around 68%. For the same molecule, the “% control” value in assay [1] is 32.38%. The “MEAN N” value in assay [1] came to 42100 copies/mL. The “Log 10 N” value in assay [1] (listed as SAQ) is 4.61 and 4.60 and 4.66. The MEAN in assay [1] (Table 8) worked out at 124762 copies/mL; in assay [1] (Table 10), 2438 copies/mL. The “N*” value in assay [1] (Table 8, per specimen, 90 min viral inoculation, MISID 0.685 uM, listed as SAQ) was 122515 copies/mL and 128455 copies/mL and 123316 copies/mL; in assay [1] (Table 10, per specimen, 3TC 1 uM, listed as SAQ), 2816 copies/mL and 2375 copies/mL and 2122 copies/mL. For the same molecule, the “% OF CONTROL” value in assay [1] (Table 8 and Experiment 10) is 63.82%; in assay [1] (Table 10 and Experiment 11) it was “approximately 55%”; in assay [1] (Table 10 and Experiment 11, listed as SAQ) it was 55.08%. The IC50 in assay [2] (Homo sapiens, CCRF-CEM, read-out: IC50 in combination, Saquinavir part, concurrent combination of PEG-ASNase and Saquinavir) was 14.5 µM; in assay [2] (read-out: IC50 in combination, Saquinavir part, concurrent combination of PEG-ASNase and Saquinavir, listed as SAQ), 14.5 µM; in assay [3] (72 h, read-out: IC50 in CEM/0 cells), 26 µM; in assay [3] (read-out: IC50 in CEM/0 cells) it was 21 to 28 µM; in assay [3] (read-out: Saquinavir IC50 alone), 25 µM. For the same molecule, in assay [3] (Saquinavir 10 μM), the “kill compared to untreated control” value was determined as 8.76%. Also, the “kill compared to control cells” value in assay [3] (Saquinavir 100 μM, highest concentration tested) worked out at 99.50%. Moreover, the “cell kill” value in assay [3] (Saquinavir 0.001 to 1 μM) is “no cell kill”.

B1: PEG-ASNase: asparaginase conjugated with polyethylene glycol (PEG); sold under the name ONCASPAR by Rhône-Poulenc Rorer (conjugate, UniProt P00805 23-348, looked up)
L-asparaginase 2: LPNITILATGGTIAGGGDSATKSNYTVGKVGVENLVNAVPQLKDIANVKGEQVVNIGSQDMNDNVWLTLAKKINTDCDKTDGFVITHGTDTMEETAYFLDLTVKCDKPVVMVGAMRPSTSMSADGPFNLYNAVVTAADKASANRGVLVVMNDTVLDGRDVTKTNTTDVATFKSVNYGPLGYIHNGKIDYQRTPARKHTSDTPFDVSKLNELPKVGIVYNYANASDLPAKALVDAGYDGIVSAGVGNGNLYKSVFDTLATAAKTGTAVVRSSRVPTGATTQDAEVDDAKYGFVASGTLNPQKARVLLQLALTQTKDPQQIQQIFNQY
modifications: PEG conjugate (pegaspargase)
notes: asparaginase conjugated with polyethylene glycol (PEG); sold under the name ONCASPAR by Rhône-Poulenc Rorer
As for B1, the “inhibition of HIV-RNA in the supernatants in comparison to untreated control” value in assay [1] was “approximately 60%”. The “% control” value in assay [1] is reported as 40.78%. Also, in assay [1], the “MEAN N” value turned out to be 53020 copies/mL. The “Log 10 N” value in assay [1] (listed as PEG) was 4.71 and 4.72 and 4.73. For the same molecule, the values for the MEAN in assay [1] (Table 8) and in assay [1] (Table 10) were 143761 copies/mL and 3233 copies/mL, respectively. Moreover, the “N*” value in assay [1] (Table 8, per specimen, 90 min viral inoculation, MISID 0.685 uM, listed as PEG) was 147041 copies/mL and 142575 copies/mL and 141667 copies/mL; in assay [1] (Table 10, per specimen, 3TC 1 uM, listed as PEG) it was 3132 copies/mL and 3048 copies/mL and 3520 copies/mL. Besides, the “% OF CONTROL” value in assay [1] (Table 8 and Experiment 10) was 73.54%; in assay [1] (Table 10 and Experiment 11) it was around 73%; in assay [1] (Table 10 and Experiment 11, listed as PEG), 73.06%. Besides, the “IC50 in combination, PEG-ASNase part” value in assay [2] (concurrent combination of PEG-ASNase and Saquinavir) is on record as 0.233 IU/ml; in assay [2] (concurrent combination of PEG-ASNase and Saquinavir, listed as PEG) it was 0.23 IU/ml. In addition, the “PEG-ASNase IC50 alone” value in assay [3] (CEM/0 T-cells, single agent) is 0.4 IU/ml and 0.40 IU/ml. For the same molecule, in assay [3] (CEM/0 cells in vitro, over 72 hours), the “concentration that produces a cytostatic condition” value is listed as “approximately 0.5 IU/ml”. Further, the “effect on cell growth” value in assay [3] (PEG-ASNase 0.03, 0.1, 0.2, 0.3 and 0.4 IU/ml, compared to control growth rate) is “marginally effective in preventing cell growth”. For the same molecule, in assay [4] (highest PEG-ASNase concentration), the “glutamine level, % of the untreated control” value is “less than 3.0%”. In addition, the “asparagine level, % of the untreated control” value in assay [4] (various PEG-ASNase concentrations) is “less than 3.0%”.

Source of the values: patent US6689762B1, “Composition and methods for treatment of HIV infection” (Enzon Pharmaceuticals, Inc., priority 1998, dated 2004).
